The test system of test [1] is HT-29, K-562 and KG-1 cells. Kind of test: GTP pool depletion and repletion, and cell cycle block, in cell lines. The format is cell-based, human. The protocol:
The present identification of relevant biomarkers was cognizant of the need to capture genes that move with respect to relevant clinical experiments. For example, IMPDH inhibition results in the cell cycle halting at the G1 border. […] Concentration depletion of GTP was measured in HT-29, K-562 and KG-1 cells. DMSO was used as control. […] For example, PDE7A and RRM2 were deregulated only on GTP repletion (which occurred within 90 minutes after drug removal). Thus, the present experiments have correlated gene involvement with the real biological endpoint for IMPDH inhibition.

The target of another test is both IMPDH isozymes. As to conditions: cited from earlier work.
In test [2] the test system is human peripheral lymphocytes stimulated with either B-cell or T-cell mitogens. To be noted: cited from earlier work.

Each structure is given as a SMILES string. A value given as a limit tells only on which side of the number the result lay.

As to `CC[C@H](CC#N)OC(=O)N[C@@H](C)c1cccc(NC(=O)Nc2ccc(-c3cnco3)c(OC)c2)c1` [AVN-944], the “Effect on GTP pools” value in test [1] (HT-29, K-562 and KG-1 cells, DMSO control) is “depleted GTP pools”. Also, the “Time to GTP repletion after drug removal” value in test [1] (after drug removal) was no more than 90 min. Further, in test [1] (at concentrations of AVN-944 that depleted GTP pools), the “Effect on cell cycle” value is reported as “S phase cell cycle block”. Moreover, the Ki on both IMPDH isozymes is 7 to 10 nM. Further, in test [2], the IC50 is 20 to 100 nM.

As a reminder, the Ki is the dissociation constant of the complex between target and ligand, obtained from inhibition or displacement. For orientation: IC50 means the midpoint of a concentration-inhibition curve.

Source of the values: patent US20100015620A1, “CANCER-LINKED GENES AS BIOMARKERS TO MONITOR RESPONSE TO IMPDH INHIBITORS” (priority 2006, published 2010).
